From PubChem BioAssay (NCI)
Where “and” joins values, the source holds several entries; their conditions need not be identical. Identical values can stand only once.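 Protocol summary: plate cells (96-well), add compound at 5 concentrations, incubate 48 h, interpolate endpoints linearly. Here, GI50 denotes the concentration required for 50% inhibition of growth. At the TGI there is no net growth.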

Tested on: MDA-MB-468 breast
Assay: NCI-60 cell line screen, 48 h

SMILES: CCc1cccc2c3c(sc12)C(c1ccc(Cl)cc1)C(C#N)=C(/N=C/c1ccc(Cl)cc1)O3 (centres undefined)
- GI50: 565 nM
- TGI: 2.46 µM

SMILES: Cc1ccc(Nc2nc(N)c(C(=O)c3ccc(C#N)cc3)s2)cc1
- GI50: 229 nM
- TGI: 0.663 µM

SMILES: Cc1c(C2Nc3ccccc3C2C)[nH]c2ccccc12 (centres undefined)
- GI50: 10400 nM
- TGI: 27.8 µM

SMILES: CCCCCc1c(C)[nH]c(/C=C2\N=C(c3ccc[nH]3)C=C2CC)c1C
- GI50: 21.5 nM
- TGI: 0.0904 µM

SMILES: Cc1cc(NC(=O)c2ccc(C)c(Nc3nccc(-c4cccnc4)n3)c2)cc(-n2cnc(C)c2)c1
- GI50: 1220 nM
- TGI: 3.27 µM

SMILES: Cc1sc2nc(NCCc3c[nH]c4ccc(Cl)cc34)[nH]c(=O)c2c1C
- GI50: 2130 nM
- TGI: 4.68 µM

SMILES: Nc1nc(Nc2ccccc2)c2ncn(Cc3cc4c(cc3Br)OCO4)c2n1
- GI50: < 10 nM
- TGI: 18.2 µM

SMILES: CC(=O)Oc1ccccc1C(=O)N=C1[Se]CCCN1C(=O)c1ccccc1OC(C)=O
- GI50: 3380 nM
- TGI: 10.9 µM

SMILES: COC(=O)[C@@H](NC(=O)[C@@H](OC)[C@@H]1Cc2cc3cc(OC4CC(OC5CC(O)C(O)C(C)O5)C(O)C(C)O4)c(C)c(O)c3c(O)c2C(=O)[C@H]1OC1CC(OC2CC(OC3CC(C)(O)C(O)C(C)O3)C(O)C(C)O2)C(O)C(C)O1)C(C)C (some centres undefined)
- GI50: 131 nM
- TGI: 2.6 µM

SMILES: C#C[C@]1(O)CC[C@H]2[C@@H]3CC=C4c5sc(Nc6ccccc6)nc5CC[C@]4(C)[C@H]3CC[C@@]21C
- GI50: 1710 nM
- TGI: 4.25 µM

SMILES: Cc1ccc(N(CSc2ccc(Cl)cc2)CSc2ccc(Cl)cc2)cc1
- GI50: 1910 nM
- TGI: 6.23 µM

SMILES: O=C(CN(C1CCCCC1)C1CCCCC1)Nc1ccc(S(=O)(=O)c2ccc(NC(=O)CN(C3CCCCC3)C3CCCCC3)cc2)cc1
- GI50: 1040 nM
- TGI: 2.93 µM

SMILES: O=C(Nc1ccc(Cl)cc1F)c1cc(Br)ccc1O
- GI50: 1130 nM
- TGI: 4.45 µM

SMILES: O=C(Nc1cccc(Cl)c1)c1cc2ccccc2cc1O
- GI50: 2200 nM and 1910 nM
- TGI: 10.4 µM and 6.67 µM

SMILES: CC(=O)Oc1ccccc1C(=O)N=C1[Se]CCN1C(=O)c1ccccc1OC(C)=O
- GI50: 740 nM
- TGI: 2.67 µM

SMILES: O=c1[nH]c2cc(Cl)ccc2n1C1CCN(CCCC(c2ccc(F)cc2)c2ccc(F)cc2)CC1
- GI50: 1650 nM
- TGI: 3.14 µM

SMILES: N#CC1(C2SCCS2=O)C2=C(C(=O)c3ccccc3C2=O)N2CCCC21 (centres undefined)
- GI50: 467 nM
- TGI: 1.9 µM

SMILES: COc1cc2cn3c4ccc(O)cc4[nH]c(=O)c3c2cc1OC
- GI50: 20 nM
- TGI: 0.0568 µM

SMILES: O=C(N/N=C\c1cc(Br)ccc1O)c1ccncc1
- GI50: 1070 nM
- TGI: 5.51 µM

SMILES: C#CC(=O)Nc1cccc(Nc2nc3c(c(NCc4ccccc4)n2)CCCC3)c1
- GI50: 168 nM
- TGI: 0.573 µM

SMILES: CCN(CC)CCOc1ccc(/C(=C(\C)c2ccc(F)c(OC)c2)c2ccc(Cl)cc2)cc1
- GI50: 1910 nM
- TGI: 4.23 µM

SMILES: COc1ccc(CNc2c3ccccc3nc3ccccc23)cc1OC
- GI50: 1580 nM
- TGI: 4.14 µM

SMILES: Cc1c[n+](Cc2ccc3ccccc3c2)cn1Cc1ccc2ccccc2c1
- GI50: 362 nM
- TGI: 1.35 µM

SMILES: O=C(CCCN1CC=C(n2c(=O)[nH]c3ccccc32)CC1)c1ccc(F)cc1
- GI50: 18800 nM
- TGI: 59.5 µM

SMILES: CCN1C(=O)N(CC)C2C1NC(=S)N2/N=C/C=C/c1cccs1 (centres undefined)
- GI50: 198 nM

SMILES: Cc1ccc2c(n1)C(=O)C(Cl)=C(Nc1ccc(C(F)(F)F)cc1)C2=O
- GI50: 1890 nM
- TGI: 4 µM

SMILES: CN1CCc2c(Sc3ccc(C(=O)NO)cc3)c3ccccc3n2C1
- GI50: 1120 nM
- TGI: 2.92 µM

SMILES: CCN(CC)CC(C)(C)C(=O)/C=C/c1ccc(Cl)c(Cl)c1
- GI50: 1690 nM
- TGI: 3.42 µM

SMILES: CC(=O)O[C@@H]1C[C@]2(C(C)C)O[C@@]1(C)[C@@H]1CCC(C)=C1[C@@H]2OC(=O)/C=C/c1ccccc1
- GI50: 24200 nM
- TGI: > 100 µM

SMILES: Cc1[nH]n(-c2cccc(Cl)c2)c(=O)c1/C=C1\C=Nc2ccc(Br)cc21
- GI50: 3970 nM
- TGI: 29.2 µM

SMILES: CC(=O)Oc1ccc(Nc2c3ccccc3nc3ccccc23)cc1
- GI50: 913 nM
- TGI: 3.01 µM

SMILES: Nc1nc(Br)nc2c1ncn2C1CC(O)C(CO)O1 (centres undefined)
- GI50: > 100000 nM
- TGI: > 100 µM

SMILES: c1ccc2c3ccn4cc5c(cc4c-3nc2c1)CCCC5
- GI50: 1390 nM
- TGI: 3.6 µM

SMILES: O=C1/C(=C\c2cccn2Cc2ccccc2)c2ccccc2N1c1c(Cl)cccc1Cl
- GI50: 118 nM
- TGI: 0.463 µM

SMILES: NC(=O)C(=CNc1nc(-c2ccc(Cl)c(Cl)c2)cs1)C(N)=O
- GI50: > 100000 nM
- TGI: > 100 µM
